Measurements taken from ChEMBL document CHEMBL1275577, “Study of the in vitro activities of rifaximin and comparator agents against 536 anaerobic intestinal bacteria from the perspective of potential utility in pathology involving bowel flora” (Antimicrob Agents Chemother, 2009).
Values after ≈ are worked out from the molar mass of the structure shown.

How the values were obtained:
Type in all cases: functional
[1] = test system: Clostridium butyricum; test: Antimicrobial activity against Clostridium butyricum by Wadsworth agar dilution method
[2] = test system: Coprobacillus cateniformis; test: Antimicrobial activity against Coprobacillus cateniformis by Wadsworth agar dilution method
[3] = test system: Pseudoramibacter alactolyticus; test: Antimicrobial activity against Eubacterium alactolyticum by Wadsworth agar dilution method
[4] = test system: Ruminococcus flavefaciens; test: Antimicrobial activity against Ruminococcus flavefaciens by Wadsworth agar dilution method
[5] = test system: Clostridium paraputrificum; test: Antimicrobial activity against Clostridium paraputrificum by Wadsworth agar dilution method
[6] = test system: Schaalia meyeri; test: Antimicrobial activity against Actinomyces meyeri by Wadsworth agar dilution method
[7] = test system: Ruminococcus gnavus; test: Antimicrobial activity against Ruminococcus gnavus by Wadsworth agar dilution method; conditions: Mediterraneibacter gnavus
[8] = test system: Bifidobacterium dentium; test: Antimicrobial activity against Bifidobacterium dentium by Wadsworth agar dilution method
[9] = test system: Fusobacterium mortiferum; test: Antimicrobial activity against Clostridium rectum by Wadsworth agar dilution method
[10] = test system: Paraclostridium bifermentans; test: Antimicrobial activity against Clostridium bifermentans by Wadsworth agar dilution method
[11] = test system: Bifidobacterium adolescentis; test: Antimicrobial activity against Bifidobacterium adolescentis by Wadsworth agar dilution method
[12] = test system: Hoylesella loescheii; test: Antimicrobial activity against Prevotella loescheii by Wadsworth agar dilution method
[13] = test system: Bifidobacterium breve; test: Antimicrobial activity against Bifidobacterium breve by Wadsworth agar dilution method
[14] = test system: Porphyromonas; test: Antimicrobial activity against Porphyromonas sp. by Wadsworth agar dilution method
[15] = test system: Clostridium cadaveris; test: Antimicrobial activity against Clostridium cadaveris by Wadsworth agar dilution method
[16] = test system: Flavonifractor plautii; test: Antimicrobial activity against Clostridium orbiscindens by Wadsworth agar dilution method
[17] = test system: Parvimonas micra; test: Antimicrobial activity against Peptostreptococcus micros by Wadsworth agar dilution method
[18] = test system: Bacteroides stercoris; test: Antimicrobial activity against Bacteroides stercoris by Wadsworth agar dilution method
[19] = test system: Ruminococcus obeum; test: Antimicrobial activity against Ruminococcus obeum by Wadsworth agar dilution method; conditions: Blautia obeum
[20] = test system: Clostridium disporicum; test: Antimicrobial activity against Clostridium disporicum by Wadsworth agar dilution method
[21] = test system: Fusobacterium nucleatum; test: Antimicrobial activity against Fusobacterium nucleatum by Wadsworth agar dilution method
[22] = test system: Parabacteroides goldsteinii; test: Antimicrobial activity against Parabacteroides goldsteinii by Wadsworth agar dilution method
[23] = test system: Desulfovibrio vulgaris; test: Antimicrobial activity against Desulfovibrio vulgaris by Wadsworth agar dilution method; conditions: Nitratidesulfovibrio vulgaris
[24] = test system: Lactobacillus sp.; test: Antimicrobial activity against Lactobacillus sp. by Wadsworth agar dilution method
[25] = test system: Eubacterium cylindroides; test: Antimicrobial activity against Eubacterium cylindroides by Wadsworth agar dilution method; conditions: Faecalitalea cylindroides
[26] = test system: Desulfovibrio desulfuricans; test: Antimicrobial activity against Desulfovibrio desulfuricans by Wadsworth agar dilution method
[27] = test system: Prevotella bivia; test: Antimicrobial activity against Prevotella bivia by Wadsworth agar dilution method
[28] = test system: Lacticaseibacillus rhamnosus; test: Antimicrobial activity against Lactobacillus rhamnosus by Wadsworth agar dilution method
[29] = test system: Clostridium nexile; test: Antimicrobial activity against Clostridium nexile by Wadsworth agar dilution method; conditions: Faecalimonas nexilis
[30] = test system: Thomasclavelia ramosa; test: Antimicrobial activity against Clostridium ramosum by Wadsworth agar dilution method
[31] = test system: Finegoldia magna; test: Antimicrobial activity against Finegoldia magna by Wadsworth agar dilution method
[32] = test system: Eubacterium limosum; test: Antimicrobial activity against Eubacterium limosum by Wadsworth agar dilution method
[33] = test system: Bacteroides fragilis; test: Antimicrobial activity against Bacteroides fragilis by Wadsworth agar dilution method
[34] = test system: Collinsella aerofaciens; test: Antimicrobial activity against Colinsella aerofaciens by Wadsworth agar dilution method
[35] = test system: Clostridium lactatifermentans; test: Antimicrobial activity against Clostridium lactatifermentans by Wadsworth agar dilution method; conditions: Anaerotignum lactatifermentans
[36] = test system: Ruminococcus lactaris; test: Antimicrobial activity against Ruminococcus lactaris by Wadsworth agar dilution method
[37] = test system: Prevotella corporis; test: Antimicrobial activity against Prevotella corporis by Wadsworth agar dilution method
[38] = test system: Blautia luti; test: Antimicrobial activity against Ruminococcus luti by Wadsworth agar dilution method
[39] = test system: Bacteroides uniformis; test: Antimicrobial activity against Bacteroides uniformis by Wadsworth agar dilution method
[40] = test system: Clostridium bartlettii; test: Antimicrobial activity against Clostridium bartlettii by Wadsworth agar dilution method; conditions: Intestinibacter bartlettii
[41] = test system: Clostridium symbiosum; test: Antimicrobial activity against Clostridium symbiosum by Wadsworth agar dilution method
[42] = test system: Lactobacillus catenaformis; test: Antimicrobial activity against Lactobacillus catenaformis by Wadsworth agar dilution method; conditions: Eggerthia catenaformis
[43] = test system: Clostridium fallax; test: Antimicrobial activity against Clostridium fallax by Wadsworth agar dilution method
[44] = test system: Clostridium subterminale; test: Antimicrobial activity against Clostridium subterminale by Wadsworth agar dilution method
[45] = test system: Clostridium hathewayi; test: Antimicrobial activity against Clostridium hathewayi by Wadsworth agar dilution method; conditions: Hungatella hathewayi
[46] = test system: Prevotella intermedia; test: Antimicrobial activity against Prevotella intermedia by Wadsworth agar dilution method
[47] = test system: Desulfovibrio fairfieldensis; test: Antimicrobial activity against Desulfovibrio fairfieldensis by Wadsworth agar dilution method

With `NC[C@@H]1O[C@H](O[C@H]2[C@@H](O)[C@H](O[C@@H]3[C@@H](O)[C@H](N)C[C@H](N)[C@H]3O[C@H]3O[C@H](CN)[C@@H](O)[C@H](O)[C@H]3N)O[C@@H]2CO)[C@H](N)[C@@H](O)[C@@H]1O` [FRAMYCETIN] the MIC50 [1] was 256 µg/mL (≈ 416 µM), the MIC90 [1] was 1020 µg/mL (≈ 1670 µM) and the MIC50 [2] was 128 µg/mL (≈ 208 µM). It also gave an MIC90 [2] of 1020 µg/mL (≈ 1670 µM), an MIC50 [3] of 128 µg/mL (≈ 208 µM) and an MIC90 [3] of 1020 µg/mL (≈ 1670 µM). It also gave an MIC50 [4] of 128 µg/mL (≈ 208 µM), an MIC90 [4] of 512 µg/mL (≈ 833 µM) and an MIC50 [5] of 256 µg/mL (≈ 416 µM). It also gave an MIC90 [5] of 1020 µg/mL (≈ 1670 µM), an MIC50 [6] of 128 µg/mL (≈ 208 µM) and an MIC90 [6] of 1020 µg/mL (≈ 1670 µM). The MIC50 [7] was 128 µg/mL (≈ 208 µM), the MIC90 [7] was 512 µg/mL (≈ 833 µM) and the MIC50 [8] was 128 µg/mL (≈ 208 µM). The MIC90 [8] was 1020 µg/mL (≈ 1670 µM), the MIC50 [9] was 256 µg/mL (≈ 416 µM) and the MIC90 [9] was 1020 µg/mL (≈ 1670 µM). For the same compound, the MIC50 [10] was 256 µg/mL (≈ 416 µM), the MIC90 [10] was 1020 µg/mL (≈ 1670 µM) and the MIC50 [11] was 128 µg/mL (≈ 208 µM). It also gave an MIC90 [11] of 1020 µg/mL (≈ 1670 µM), an MIC50 [12] of 512 µg/mL (≈ 833 µM) and an MIC90 [12] of 1020 µg/mL (≈ 1670 µM). It also gave an MIC50 [13] of 128 µg/mL (≈ 208 µM), an MIC90 [13] of 1020 µg/mL (≈ 1670 µM) and an MIC50 [14] of 512 µg/mL (≈ 833 µM). For the same compound, the MIC90 [14] was > 1020 µg/mL, the MIC50 [15] was 256 µg/mL (≈ 416 µM) and the MIC90 [15] was 1020 µg/mL (≈ 1670 µM). It also gave an MIC50 [16] of 256 µg/mL (≈ 416 µM), an MIC90 [16] of 512 µg/mL (≈ 833 µM) and an MIC50 [17] of 128 µg/mL (≈ 208 µM). The MIC90 [17] was 512 µg/mL (≈ 833 µM), the MIC50 [18] was > 1020 µg/mL and the MIC90 [18] was > 1020 µg/mL. For the same compound, the MIC50 [19] was 128 µg/mL (≈ 208 µM), the MIC90 [19] was 512 µg/mL (≈ 833 µM) and the MIC50 [20] was 256 µg/mL (≈ 416 µM). The MIC90 [20] was 1020 µg/mL (≈ 1670 µM), the MIC50 [21] was 1020 µg/mL (≈ 1670 µM) and the MIC90 [21] was 1020 µg/mL (≈ 1670 µM). For the same compound, the MIC50 [22] was 1020 µg/mL (≈ 1670 µM), the MIC90 [22] was > 1020 µg/mL and the MIC50 [23] was 256 µg/mL (≈ 416 µM). The MIC90 [23] was 1020 µg/mL (≈ 1670 µM), the MIC50 [24] was 128 µg/mL (≈ 208 µM) and the MIC90 [24] was 1020 µg/mL (≈ 1670 µM). The MIC50 [25] was 128 µg/mL (≈ 208 µM), the MIC90 [25] was 1020 µg/mL (≈ 1670 µM) and the MIC [26] was > 1020 µg/mL. For the same compound, the MIC50 [26] was > 1020 µg/mL, the MIC90 [26] was > 1020 µg/mL and the MIC50 [27] was 512 µg/mL (≈ 833 µM). The MIC90 [27] was 1020 µg/mL (≈ 1670 µM), the MIC50 [28] was 128 µg/mL (≈ 208 µM) and the MIC90 [28] was 1020 µg/mL (≈ 1670 µM). It also gave an MIC50 [29] of 256 µg/mL (≈ 416 µM), an MIC90 [29] of 1020 µg/mL (≈ 1670 µM) and an MIC50 [30] of 256 µg/mL (≈ 416 µM). It also gave an MIC90 [30] of 1020 µg/mL (≈ 1670 µM), an MIC50 [31] of 128 µg/mL (≈ 208 µM) and an MIC90 [31] of 512 µg/mL (≈ 833 µM). For the same compound, the MIC50 [32] was 128 µg/mL (≈ 208 µM), the MIC90 [32] was 1020 µg/mL (≈ 1670 µM) and the MIC50 [33] was > 1020 µg/mL. The MIC90 [33] was > 1020 µg/mL, the MIC50 [34] was 128 µg/mL (≈ 208 µM) and the MIC90 [34] was 1020 µg/mL (≈ 1670 µM). It also gave an MIC50 [35] of 256 µg/mL (≈ 416 µM), an MIC90 [35] of 1020 µg/mL (≈ 1670 µM) and an MIC50 [36] of 128 µg/mL (≈ 208 µM). For the same compound, the MIC90 [36] was 512 µg/mL (≈ 833 µM), the MIC50 [37] was 512 µg/mL (≈ 833 µM) and the MIC90 [37] was 1020 µg/mL (≈ 1670 µM). The MIC50 [38] was 128 µg/mL (≈ 208 µM), the MIC90 [38] was 512 µg/mL (≈ 833 µM) and the MIC50 [39] was > 1020 µg/mL. The MIC90 [39] was > 1020 µg/mL, the MIC50 [40] was 256 µg/mL (≈ 416 µM) and the MIC90 [40] was 1020 µg/mL (≈ 1670 µM). It also gave an MIC50 [41] of 256 µg/mL (≈ 416 µM), an MIC90 [41] of 1020 µg/mL (≈ 1670 µM) and an MIC50 [42] of 128 µg/mL (≈ 208 µM). It also gave an MIC90 [42] of 1020 µg/mL (≈ 1670 µM), an MIC50 [43] of 256 µg/mL (≈ 416 µM) and an MIC90 [43] of 1020 µg/mL (≈ 1670 µM). For the same compound, the MIC50 [44] was 256 µg/mL (≈ 416 µM), the MIC90 [44] was 1020 µg/mL (≈ 1670 µM) and the MIC50 [45] was 64 µg/mL (≈ 104 µM). It also gave an MIC90 [45] of 512 µg/mL (≈ 833 µM), an MIC50 [46] of 512 µg/mL (≈ 833 µM) and an MIC90 [46] of 1020 µg/mL (≈ 1670 µM). It also gave an MIC50 [47] of 256 µg/mL (≈ 416 µM) and an MIC90 [47] of 1020 µg/mL (≈ 1670 µM).
